US20260242440A1, “NOVEL MEANS TO MODULATE NMDA RECEPTOR-MEDIATED TOXICITY” (FUNDAMENTAL PHARMA GMBH, priority 2018, published 2026)

Legend:
[1] = tested on: primary mouse hippocampal neurons; assay: NMDA receptor induced mitochondrial membrane potential breakdown (Rh123 imaging); assay type: cell-based
Protocol: Coverslips with primary cultured neurons (DIV15-DIV17) were used to examine mitochondrial membrane potential (Ψm) and mitochondrial calcium signalling, which was performed at room temperature in CO2-independent culture medium (CICM) containing: 10 mM HEPES, 140 mM NaCl, 2.5 mM KCl, 1.0 mM MgCl2, 2.0 mM CaCl2, 1.0 mM Glycine, 35.6 mM Glucose and 0.5 mM Na-pyruvate. All images were obtained by a cooled-CCD camera (iXon 887, Andor) on an upright microscope (BX51WI, Olympus). Fluorescence excitation was provided by a xenon arc lamp in combination with an excitation filter wheel (MT-20, Olympus). Data were collected using Cell^R software (Olympus), analysed using ImageJ and quantified using Igor Pro (WaveMetrics). Ψm was detected with the small molecule fluorescence indicator Rhodamine 123 (Rh123; Molecular Probe™, R302). Primary cultured neurons were loaded with 4.3 μM Rh123 in CICM at 37° C. for 30 min, then washed and left in CICM for another 30 min before recording. At the end of each experiment, the mitochondrial uncoupler FCCP (5 μM, Sigma-Aldrich, Cat #C2920) was applied to the cells to reach the maximal Rh123 fluorescence intensity. Rh123 was imaged with 470±20 nm excitation and 525±25 nm emission wavelengths using a 20× objective. Rh123 fluorescence intensity was measured in the nucleus to minimize contamination from cytosolic mitochondrial signal and Rh123 fluorescence intensity was normalized to the maximum FCCP signal for each region of interest.
Mitochondrial dysfunction is a hallmark of NMDA receptor excitotoxicity and an early event en-route to neuronal death. A parameter that is often used to assess mitochondrial integrity is the mitochondrial membrane potential. A breakdown of the mitochondrial membrane potential can be observed after exposure of hippocampal or cortical neurons to NMDA and indicates excitotoxicity-associated mitochondrial dysfunction. Therefore, the inventors investigated the effect of polypeptides comprising the sequence of SEQ ID NO:5 or SEQ ID NO: 54 as well as of the control TRMP5 sequence (SEQ ID NO: 55) on mitochondrial membrane potential break down in primary mouse hippocampal neurons. Excitotoxicity leading to mitochondrial membrane potential break down was induced with bath application of 20 μM NMDA. After 11 minutes, the mitochondrial uncoupler, carbonylcyanide-p-trifluoromethoxyphenylhydrazone (FCCP) was added. Addition of FCCP leads to break-down of the mitochondrial membrane potential and served as a control of the test system.

[2] = tested on: retinal ganglion cells (RGCs); assay: NMDA-induced degeneration of retinal ganglion cells (RGCs) in mice; assay type: in vivo, mouse; conditions: 40 mg/kg i.p. at -16h, -3h, 0 h, +24 h, intravitreal NMDA 20 nmol, 7 days
Protocol: The inventors also assessed, whether compound P4 can protect retinal ganglion cells against NMDA-induced degeneration. For this purpose, 28 C57BL/6J mice (25±3.5 g) were randomly allocated to two groups. All mice received vehicle (sunflower oil containing 5% ethanol) or P4 (40 mg/kg, dissolved in sunflower oil containing 5% ethanol) through intraperitoneal injection at −16h, −3h, 0 h, +3 h and +24 h in a volume of 50 μL each injection. At 0 h, mice received 20 nmol of NMDA (total volume 2.0 μL) by intravitreal injection in the left eye and saline (total volume 2.0 μL) in the right eye. Both eyes were removed from euthanized mice 7 days after intravitreal injections and fixed in formalin for 15 min before retinas were dissected and processed for whole mount immunostaining. Retinas were incubated in blocking solution (10% FBS, 1% Triton-X 100 in PBS) for 6 h, followed by 24 h incubation with anti-Brn3a antibody in blocking solution at 4° C. Retinas were washed 3 times with PBS and incubated with Donkey anti-rabbit Alexa Fluor-594 for 24 h at room temperature. Retinas were washed again, cut and mounted onto slides. […] Brn3a-positive cells were identified and counted with a macro in Cellprofiler. […]

Row | Compound | protection of mitochondrial membrane potential from NMDA excitotoxicity ([1]; compound applied 30 min prior to recording, bath application of NMDA) | retinal ganglion cell (RGC) degeneration (Brn3a-positive cells) [2] | NMDA receptor induced mitochondrial membrane potential breakdown ([1]; polypeptides expressed via rAAV, bath application of 20 μM NMDA)
1 | CCN(CCN)Cc1cccc(Br)c1 [P4] | significantly protect mitochondrial membrane potential from NMDA excitotoxicity | reduces retinal ganglion cell (RGC) degeneration | –
2 | SEQ ID NO:5: polypeptide, amino acid residues 633-689 of mouse TRPM4 (NSEERAARLLLRRCPLWGEATCLQLAMQADARAFFAQDGVQSLLTQKWWGEMDSTTP; listed as Mus musculus) | – | – | capable of preventing NMDA receptor induced mitochondrial membrane potential breakdown
